What all share (experiment): relative viability (nuclei count vs DMSO), 5 days (fraction); higher = more cells survive
Compound in test [1]: COc1cc2nc(N3CCCN(C)CC3)nc(NC3CCN(Cc4ccccc4)CC3)c2cc1OC + CC(=O)c1c(C)c2cnc(Nc3ccc(N4CCNCC4)cn3)nc2n(C2CCCC2)c1=O [Palbociclib] (partner 0.5 µM)
A digest of the protocol:
(§1)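 Each reported value is a median over duplicate plates. It expresses relative viability: treated-well nuclei count divided by vehicle-well nuclei count. Lung cancer cell lines in 1536-well plates were dosed by pin tool a day after seeding, alone with one drug or with a fixed anchor-drug dose plus five library-drug doses (not always all listed) in √10 steps, and nuclei were counted after 5 days.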

Compound in test [2]: COc1cc2nc(N3CCCN(C)CC3)nc(NC3CCN(Cc4ccccc4)CC3)c2cc1OC + Cc1nc(NC(=O)N2CCC[C@H]2C(N)=O)sc1-c1ccnc(C(C)(C)C(F)(F)F)c1 [Alpelisib] (partner 2 µM)
The procedure, abridged:
as §1

Compound in the test “AZD6482 + Pictilisib”: Cc1cc([C@@H](C)Nc2ccccc2C(=O)O)c2nc(N3CCOCC3)cc(=O)n2c1 [AZD6482] + CS(=O)(=O)N1CCN(Cc2cc3nc(-c4cccc5[nH]ncc45)nc(N4CCOCC4)c3s2)CC1 [Pictilisib] (partner 1 µM)
A digest of the protocol: as §1

Compound in the test “AZD6482 + Pemetrexed”: Cc1cc([C@@H](C)Nc2ccccc2C(=O)O)c2nc(N3CCOCC3)cc(=O)n2c1 [AZD6482] + Nc1nc2[nH]cc(CCc3ccc(C(=O)N[C@@H](CCC(=O)O)C(=O)O)cc3)c2c(=O)[nH]1 [Pemetrexed] (partner 0.2 µM)
A digest of the protocol: as §1

Drawing on the supplement of paper PMC10307832, this text covers relative viability for one cell line.

As for CAL-12T, the relative viability in test [1] (first compound 0.2 µM) was determined as 0.4; in test [1] (first compound 0.6325 µM), 0.55; in test [1] (first compound 2 µM), 0.482; in test [1] (first compound 6.325 µM), 0.46; in test [2] (first compound 0.2 µM) it was 1.21; in test [2] (first compound 0.6325 µM) it was 1.23. Moreover, the relative viability in test [2] (first compound 2 µM) worked out at 1.16; in test [2] (first compound 6.325 µM), 1.15; in the test with AZD6482 + Pictilisib (first compound 0.08 µM) it was 0.395; in the test with AZD6482 + Pictilisib (first compound 0.8 µM), 0.571; in the test with AZD6482 + Pictilisib (first compound 2.53 µM), 0.291; with AZD6482 + Pictilisib (first compound 8 µM), 0.432. In addition, the relative viability with AZD6482 + Pemetrexed (first compound 0.08 µM) came out at 1.08; with AZD6482 + Pemetrexed (first compound 0.253 µM), 1.12; in the test with AZD6482 + Pemetrexed (first compound 0.8 µM), 1.16; with AZD6482 + Pemetrexed (first compound 2.53 µM), 0.867; with AZD6482 + Pemetrexed (first compound 8 µM) it was 1.31.
